Data taken from patent publication US20210371374A1, “METAL DI-AMINO ACID CHELATES OR METAL TRI-AMINO ACID CHELATES” (Balchem Corporation, priority 2020, published 2021).
Peptide text beside a SMILES is read from it.

Experiments:
[1] = Stability of Mg(G3) in solution via 1H NMR; assay type: physicochemical; settings: 1H NMR in D2O; periods up to 72 hrs
From the text: At 72 hrs, an observable upfield shift occurs, which may be due to isomer formation. There is no observable change in proton integration. NMR taken in D2O.

Caco-2 cells = assay: Cellular uptake in Caco-2 cells, BioVision colorimetric magnesium uptake assay kit; assay type: in vitro ADME; settings: compared with other magnesium complexes
From the text: 18 MΩ Ultrapure water was obtained in-house.

| stability in solution [1] | Compound | cellular uptake in CaCo-2 cell line (FIG. 72) (Caco-2 cells) |
| --- | --- | --- |
| considerable stability | NCC(=O)NCC(=O)NCC(=O)[O-].[Mg+2].[OH-] [Mg(G3), magnesium 2-[[2-[(2-aminoacetyl)amino]acetyl]amino]acetic acid chelate] (H-Gly-Gly-Gly-OH) | – |
| – | NCC(=O)[O-].NCC(=O)[O-].[Mg+2] [MgBG, magnesium bisglycinate, reference compound] | significantly less cellular uptake than Mg(G3) |
| – | magnesium diglycine [MgG2] | relatively linear uptake |
